Our source for the Abs. max and Em. max values is patent publication US9365721B2, “Polycyclo dyes and use thereof” (VISEN MEDICAL, INC., priority 2007, dated 2016).

Series [1] in a line: Absorption maximum (Abs. max) of the fluorochrome in solvent. It is filed as physicochemical.
Series [2] can be described thus: Fluorescence emission maximum (Em. max) of the fluorochrome in solvent. It is filed as physicochemical.

Regarding `CN1C2CCC1/C(=C\C=C1\N(CCCCS(=O)(=O)O)c3ccccc3C1(C)C)C(Cl)=C2/C=C/C1=[N+](CCCCS(=O)(=O)O)c2ccccc2C1(C)C` (centres unmarked) [Compound 11], the Abs. max in series [1] (MeOH) turned out to be 770 nm; in series [1] (water), 760 nm. The results for the Em. max in series [2] (MeOH) and in series [2] (water) were 790 nm and 775 nm, respectively.

In the case of `CN1C2CCC1/C(=C\C=C1\N(CCCCS(=O)(=O)O)c3ccccc3C1(C)C)C(SCCC(=O)O)=C2/C=C/C1=[N+](CCCCS(=O)(=O)O)c2ccccc2C1(C)C` (centres unmarked) [Compound 12], the Abs. max in series [1] (MeOH) was 780 nm; in series [1] (water) it was 768 nm. In addition, the values for the Em. max in series [2] (MeOH) and in series [2] (water) were 810 nm and 787 nm, respectively.

`CN1C2CCC1/C(=C\C=C1\N(CCCS(=O)(=O)O)c3ccc(S(=O)(=O)O)cc3C1(C)C)C(SCCC(=O)O)=C2/C=C/C1=[N+](CCCS(=O)(=O)O)c2ccc(S(=O)(=O)O)cc2C1(C)C` (centres unmarked) [Compound 13]: the Abs. max in series [1] (MeOH) is 788 nm; in series [1] (water), 777 nm. In addition, the Em. max in series [2] (MeOH) amounted to 810 nm; in series [2] (water), 797 nm.

As to `CCN1/C(=C/C=C2C(Cl)=C(/C=C/C3=[N+](CC)c4ccc5c(S(=O)(=O)O)cc(S(=O)(=O)O)cc5c4C3(C)C)C3CCC/2N3C)C(C)(C)c2c1ccc1c(S(=O)(=O)O)cc(S(=O)(=O)O)cc21` (centres unmarked) [Compound 38], the Abs. max in series [1] (MeOH) stood at 814 nm; in series [1] (water) it was 805 nm. Also, the Em. max in series [2] (MeOH) was found to be 835 nm; in series [2] (water), 827 nm.

As to `CN1C2CCC1/C(=C\C=C1\N(CCCS(=O)(=O)O)c3ccc(S(=O)(=O)O)cc3C1(C)C)C(Cl)=C2/C=C/C1=[N+](CCCS(=O)(=O)O)c2ccc(S(=O)(=O)O)cc2C1(C)C` (centres unmarked) [Compound 39], the Abs. max in series [1] (MeOH) was found to be 780 nm; in series [1] (water) it was 768 nm. In addition, the Em. max in series [2] (MeOH) worked out at 802 nm; in series [2] (water), 788 nm.
